# Measured values: patent US20250170050A1, “Use of Nordic plant-based ingredients for supporting a healthy skin microbiome” (Lumene Oy, priority 2022, published 2025)
# Tested on: Cutibacterium acnes
# Assay: In vitro growth of C. acnes by OD at 600 nm in kinetic for 49 hours, anaerobic
# Assay type: cell-based
# Conditions: oat xylitol alone
# Method: In the present study, the effects of 4 compounds and 5 combinations were evaluated on the growth of two bacterial strains: Staphylococcus epidermidis (S. epidermidis) and Cutibacterium acnes (C. acnes). The bacterial strains were grown individually, and the growth of each bacterial strain was determined in presence of the compounds or combinations by optical density (OD) measurement at 600 nm in kinetic for 24 hours for S. epidermidis strain and for 49 hours for C. acnes strain to determine a bacterial growth curve. To determine the effect of the test compounds and combinations on the growth of bacteria, bacterial suspensions were transferred in a 96-well plate containing the compounds, the combinations or glucose tested at 0.1% and 1%. Bacterial cultures were incubated at 37° C. under agitation and under anaerobic condition for C. acnes strain. All experimental conditions were performed in n=3. Optical densities at 600 nm (OD600 nm) were then read in kinetic for 24 hours for S. epidermidis strain and 49 hours for C. acnes strain using a microplate spectrophotometer (EPOCH2, BioTek Instruments). Raw data were analysed using GraphPad PRISM software (growth curves).
compound,measurement,value
OC[C@@H](O)[C@H](O)[C@@H](O)CO [Xylitol],growth of C. acnes,inhibits
